Residues, ends and D or L forms follow the SMILES beside them. *: point of attachment. X1 = Nc1ncnc2c1ncn2C1O[C@H](C(=O)*)[C@@H](O)[C@H]1O; Ahx = NCCCCCC(=O)O

Assay [1] can be described thus: Inhibition of murine Protein kinase A at 100 uM (No inhibition). On the set-up: species or system Mus musculus.
The target of a further assay is T1, CaM kinase I alpha (Zea mays, UniProt O04417).
T1 sequence (O04417 whole entry): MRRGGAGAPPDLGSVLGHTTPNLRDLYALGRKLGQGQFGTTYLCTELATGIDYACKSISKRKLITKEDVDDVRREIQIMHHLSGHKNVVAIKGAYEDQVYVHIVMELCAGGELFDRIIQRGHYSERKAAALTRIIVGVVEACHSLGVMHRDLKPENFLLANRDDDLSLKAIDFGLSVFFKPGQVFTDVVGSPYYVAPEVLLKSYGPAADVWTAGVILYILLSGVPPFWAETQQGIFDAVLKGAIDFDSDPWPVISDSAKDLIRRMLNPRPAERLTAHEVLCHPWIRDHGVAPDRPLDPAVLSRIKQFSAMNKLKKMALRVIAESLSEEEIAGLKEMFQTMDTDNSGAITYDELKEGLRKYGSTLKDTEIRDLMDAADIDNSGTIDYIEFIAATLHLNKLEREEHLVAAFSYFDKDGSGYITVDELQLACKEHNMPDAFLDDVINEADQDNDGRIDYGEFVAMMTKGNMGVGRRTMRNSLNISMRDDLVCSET
Nature of the assay: Inhibition of Calcium-dependent protein kinase 1 (CDPK-1) from maize seedlings.

Assay [2] is described as follows: Inhibition of Casein kinase 1 from rat liver.
Assay [3] can be described thus: Inhibition of Casein kinase 2 from rat liver at 100 uM (No inhibition).
Assay [4] can be described thus: Inhibition of Casein kinase 2 from rat liver.
Assay [5] in a line: Inhibition of murine Protein kinase A. The arrangement: species or system Mus musculus.

`NC(N)=NCCC[C@@H](N)C(=O)N[C@H](CCCN=C(N)N)C(=O)N[C@H](CCCN=C(N)N)C(=O)N[C@H](CCCN=C(N)N)C(=O)N[C@H](CCCN=C(N)N)C(=O)N[C@H](CCCN=C(N)N)C(=O)O`: the IC50 entry in assay [1] was “Not Active”; on CaM kinase I alpha, over 50 µM; in assay [2], over 100 µM; in assay [3], “Not Active”.

Take `N=C(N)NCCC[C@@H](NC(=O)[C@@H](CCCNC(=N)N)NC(=O)CCCCCNC(=O)[C@H]1OC(n2cnc3c(N)ncnc32)[C@H](O)[C@@H]1O)C(=O)O` (stereo partly specified): the IC50 on CaM kinase I alpha came out at 35 µM.

Consider `N=C(N)NCCC[C@H](NC(=O)[C@H](CCCNC(=N)N)NC(=O)[C@H](CCCNC(=N)N)NC(=O)[C@H](CCCNC(=N)N)NC(=O)[C@H](CCCNC(=N)N)NC(=O)[C@H](CCCNC(=N)N)NC(=O)CCCCCNC(=O)[C@H]1OC(n2cnc3c(N)ncnc32)[C@H](O)[C@@H]1O)C(=O)O` (stereo partly specified), for which the IC50 is over 30 µM in assay [4] (read-out: IC50), 0.12 µM in assay [5], 1.2 µM on CaM kinase I alpha and over 30 µM in assay [2].

For `C[C@H](NC(=O)CCNC(=O)CCNC(=O)[C@H]1OC(n2cnc3c(N)ncnc32)[C@H](O)[C@@H]1O)C(=O)N[C@@H](CCCNC(=N)N)C(=O)N[C@@H](CCCNC(=N)N)C(=O)N[C@@H](CCCNC(=N)N)C(=O)N[C@@H](CCCNC(=N)N)C(=O)N[C@@H](CCCNC(=N)N)C(=O)N[C@@H](CCCNC(=N)N)C(=O)O` (stereo partly specified), the IC50 was at least 30 µM in assay [4], 4.3 µM in assay [5], 16 µM on CaM kinase I alpha and over 100 µM in assay [2].

For `N=C(N)NCCC[C@H](NC(=O)[C@H](CCCNC(=N)N)NC(=O)[C@H](CCCNC(=N)N)NC(=O)[C@H](CCCNC(=N)N)NC(=O)[C@H](CCCNC(=N)N)NC(=O)[C@H](CCCNC(=N)N)NC(=O)CCCCCCCNC(=O)[C@H]1OC(n2cnc3c(N)ncnc32)[C@H](O)[C@@H]1O)C(=O)O` (stereo partly specified), the IC50 is over 30 µM in assay [4] (read-out: IC50), 0.24 µM in assay [5], 3.2 µM at CaM kinase I alpha and over 30 µM in assay [2].

On to `N=C(N)NCCC[C@H](NC(=O)[C@H](CCCNC(=N)N)NC(=O)[C@H](CCCNC(=N)N)NC(=O)[C@H](CCCNC(=N)N)NC(=O)[C@H](CCCNC(=N)N)NC(=O)[C@H](CCCNC(=N)N)NC(=O)CCCCCCCCCCNC(=O)[C@H]1OC(n2cnc3c(N)ncnc32)[C@H](O)[C@@H]1O)C(=O)O` (stereo partly specified), for which the IC50 was 0.33 µM in assay [5], 4.9 µM on CaM kinase I alpha, over 30 µM in assay [2] and “Not Active” in assay [3].

For `N=C(N)NCCC[C@H](NC(=O)[C@H](CCCNC(=N)N)NC(=O)[C@H](CCCNC(=N)N)NC(=O)[C@H](CCCNC(=N)N)NC(=O)[C@H](CCCNC(=N)N)NC(=O)[C@H](CCCNC(=N)N)NC(=O)CCNC(=O)[C@H]1OC(n2cnc3c(N)ncnc32)[C@H](O)[C@@H]1O)C(=O)O` (stereo partly specified), the IC50 result was “Not Active” in assay [4], 1.8 µM in assay [5], 38 µM on CaM kinase I alpha and over 30 µM in assay [2].

For `N=C(N)NCCC[C@H](NC(=O)[C@H](CCCNC(=N)N)NC(=O)[C@H](CCCNC(=N)N)NC(=O)[C@H](CCCNC(=N)N)NC(=O)[C@H](CCCNC(=N)N)NC(=O)[C@H](CCCNC(=N)N)NC(=O)CNC(=O)[C@H]1OC(n2cnc3c(N)ncnc32)[C@H](O)[C@@H]1O)C(=O)O` (stereo partly specified), the IC50 in assay [4] (read-out: IC50) is over 30 µM; in assay [5], 4 µM; at CaM kinase I alpha, 67 µM; in assay [2], over 30 µM.

Take `N=C(N)NCCC[C@H](NC(=O)[C@H](CCCNC(=N)N)NC(=O)[C@H](CCCNC(=N)N)NC(=O)[C@H](CCCNC(=N)N)NC(=O)[C@H](CCCNC(=N)N)NC(=O)[C@H](CCCNC(=N)N)NC(=O)CCCNC(=O)[C@H]1OC(n2cnc3c(N)ncnc32)[C@H](O)[C@@H]1O)C(=O)O` (stereo partly specified): the IC50 in assay [4] (read-out: IC50) is over 30 µM; in assay [5] it was 1.3 µM; on CaM kinase I alpha, 19 µM; in assay [2] it was over 30 µM.

For `C[C@H](NC(=O)C[C@H](NC(=O)C[C@H](NC(=O)[C@H]1O[C@@H](n2cnc3c(N)ncnc32)[C@H](O)[C@@H]1O)C(=O)O)C(=O)O)C(=O)N[C@@H](CCCNC(=N)N)C(=O)N[C@@H](CCCNC(=N)N)C(=O)N[C@@H](CCCNC(=N)N)C(=O)N[C@@H](CCCNC(=N)N)C(=O)N[C@@H](CCCNC(=N)N)C(=O)N[C@@H](CCCNC(=N)N)C(=O)O`, the IC50 was over 30 µM in assay [4] (read-out: IC50), 11.1 µM in assay [5], over 50 µM on CaM kinase I alpha and over 30 µM in assay [2].

As for `CC(=O)NCCCCCC(=O)N[C@@H](CCCN=C(N)N)C(=O)N[C@@H](CCCNC(=N)N)C(=O)N[C@@H](CCCNC(=N)N)C(=O)N[C@@H](CCCNC(=N)N)C(=O)N[C@@H](CCCNC(=N)N)C(=O)N[C@@H](CCCN=C(N)N)C(=O)O` (stereo in doubt), the IC50 was over 100 µM in assay [5], over 50 µM at CaM kinase I alpha, over 100 µM in assay [2] and “Not Active” in assay [3].

On to `N=C(N)NCCC[C@H](NC(=O)[C@H](CCCNC(=N)N)NC(=O)[C@H](CCCNC(=N)N)NC(=O)[C@H](CCCNC(=N)N)NC(=O)CCCCCNC(=O)[C@H]1OC(n2cnc3c(N)ncnc32)[C@H](O)[C@@H]1O)C(=O)O` (stereo partly specified) ({X1-Ahx}-RRRR-OH), for which, at CaM kinase I alpha, the IC50 was found to be 52 µM.

Turning to `Nc1ncnc2c1ncn2[C@@H]1O[C@H](CO)[C@@H](O)[C@H]1O` [ADENOSINE], the IC50 is over 300 µM in assay [4] (read-out: IC50), 141 µM in assay [5], 116 µM at CaM kinase I alpha and 126 µM in assay [2].

What is called IC50 is the concentration at which inhibition is half-maximal.
